In brackets after ≈: the same amount, converted by molar mass. Read-outs that look alike come from different tables or passages of the source.
Key:
[1] = tested on: human primary hepatocytes; assay: Cell viability, human primary hepatocytes (Eurofins Panlabs); format: cell-based; settings: Homo sapiens, Hepatocyte; plateable cryopreserved hepatocytes, alamarBlue, 24 h 37 °C, fluorimetry; 8-point 0.1–300 μM
Description: Cell viability of human primary hepatocytes against AA139 was assessed by fluorometric readout of Alamar Blue following 24 h incubation at 37 °C of human plateable cryopreserved hepatocytes and AA139 as an 8-point dose response, 0.1–300 μM, as described by Nociari et al.[41]. Cell viability was calculated as a percentage of the control cells and plotted versus concentration using Prism 8 Software. The IC50 value was determined by non-linear regression analysis of the concentration–response curve using the Hill equation. Assay was performed by Eurofins Pharma Discovery Services (Panlabs), St Charles, MO, USA, study number 100049990. Source data are provided as a source data file.

A. baumannii = assay: microbe, parasite or virus in culture; settings: Acinetobacter baumannii, mode of 6 replicates
In short: (§1)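 MICs were scored by eye after 18-20 h static incubation at 37 °C, with bacteria at 5 × 10^5 CFU mL^−1 in MHB. Peptides were serially diluted 2-fold over 12 points, top 128 or 64 μg mL^−1. CAMHB (CLSI) and 1% agarose-MHB variants were also run, at least six replicates.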

E. coli [2] = assay: microbe, parasite or virus in culture; settings: Escherichia coli
In short: as §1

K. pneumoniae = assay: microbe, parasite or virus in culture; settings: Klebsiella pneumoniae, mode of 6 replicates
In short: as §1

P. aeruginosa = assay: microbe, parasite or virus in culture; settings: Pseudomonas aeruginosa, mode of 6 replicates
In short: as §1

S. enterica Typhi = assay: microbe, parasite or virus in culture; settings: Salmonella enterica, ATCC14028 / TYPHI, read-out: BMD MIC
In short: as §1

[3] = tested on: A. baumannii clinical isolates; assay: microbe, parasite or virus in culture
Description: (§2) The in vitro activity of AA139 and comparator antimicrobials was determined in two panels of clinical isolates of E. coli, K. pneumoniae, P. aeruginosa, and A. baumannii (Supplementary Table 3), and MIC90 presented. The US panel consisted of 331 clinical isolates from 2010 to 2012. It was tested by BMD in accordance with the CLSI guidelines (M07-A9, 2012)[39]. […] AA139 was diluted in 0.01% acetic acid/0.1% bovine serum albumin. Sterile polypropylene culture cluster round-bottom 96-well plates (Costar # 3879) were used for testing. The worldwide panel consisted of 445 clinical isolates from 2011 to 2013, geographically divided into Asia, Europe, North America, and Rest of World (Middle East, Latin America, Africa, and South Pacific) with each region representing ~25% of the isolates. It was tested by broth microdilution in accordance with the CLSI guidelines (M07-A9, 2012)[39]. […] The test media was CAMHB (Becton Dickinson). AA139 and polymyxin B were tested in media supplemented with 0.002% Tween 80 (Calbiochem). MIC90 values were calculated for all or subsets of the isolates. MIC correlation between AA139 and colistin was analyzed with data from the US panel.

[4] = tested on: E. coli clinical isolates; assay: microbe, parasite or virus in culture
Description: as §2

[5] = tested on: K. pneumoniae clinical isolates; assay: microbe, parasite or virus in culture
Description: as §2

[6] = tested on: P. aeruginosa clinical isolates; assay: microbe, parasite or virus in culture
Description: as §2

E. coli [7] = tested on: E. coli; parameters: method as in Hasman H, et al. Euro. Surveill. (2015) 20:49; settings: E. coli ESBL20150072, mcr-1 pos; ESBL; CAMHB; comparator antibiotics; ref Hasman H, et al. Euro. Surveill. (2015) 20:49; cited from earlier work
B. subtilis = assay: microbe, parasite or virus in culture; settings: Bacillus subtilis
In short: as §1

L. monocytogenes = assay: microbe, parasite or virus in culture; settings: Listeria monocytogenes, ATCC19112, read-out: BMD MIC
In short: as §1

S. aureus = assay: microbe, parasite or virus in culture; settings: Staphylococcus aureus, mode of 6 replicates
In short: as §1

[8] = Worldwide isolates 2011-2013, A. baumannii n = 108
[9] = Worldwide isolates 2011-2013, E. coli n = 112
[10] = Worldwide isolates 2011-2013, K. pneumoniae n = 114
[11] = Worldwide isolates 2011-2013, P. aeruginosa n = 111

Question: With `CN(C)CCCN1c2ccccc2Sc2ccc(Cl)cc21` [Chlorpromazine, reference compound] as the molecule, how does the IC50 [1] read?
Answer: The IC50 was 35 µM.

Question: With `CC(C)(O/N=C(\C(=O)N[C@@H]1C(=O)N2C(C(=O)[O-])=C(C[n+]3ccccc3)CS[C@H]12)c1csc(N)n1)C(=O)O` [Ceftazidime, ceftazidime, reference compound] as the molecule, how does the MIC (A. baumannii; ATCC19636, read-out: BMD MIC, A. baumannii ATCC 19636 type strain, CAMHB) read?
Answer: Its MIC is 16 µg/mL (≈ 29.3 µM).

Question: And the MIC (A. baumannii; read-out: BMD MIC, A. baumannii Greece CI, XDR, PmxR, MHB)?
Answer: Its MIC is over 64 µg/mL.

Question: What about the MIC (E. coli [2]; ATCC25922, read-out: BMD MIC, E. coli ATCC 25922 FDA control strain, CAMHB, mode of 6 replicates) of the same molecule?
Answer: Its MIC is 1 µg/mL (≈ 1.83 µM).

Question: And the MIC (E. coli [2]; ATCC700926 / MG1655, read-out: BMD MIC)?
Answer: The MIC was at most 0.5 µg/mL.

Question: What about the MIC (E. coli [2]; ATCC700928, read-out: BMD MIC, E. coli ATCC 700928 CFT073 UPEC, CAMHB, mode of 6 replicates) of the same molecule?
Answer: The MIC was at most 0.25 µg/mL.

Question: What about the MIC (E. coli [2]; read-out: BMD MIC) of the same molecule?
Answer: The MIC was 16 µg/mL (≈ 29.3 µM).

Question: And the MIC (K. pneumoniae; ATCC13883, read-out: BMD MIC, K. pneumoniae ATCC 13883 type strain (polymyxin/colistin heteroresistant), MHB)?
Answer: Its MIC is 1 µg/mL (≈ 1.83 µM).

Question: What about the MIC (K. pneumoniae; ATCC700603, read-out: BMD MIC, K. pneumoniae ATCC 700603 (K6), MDR, OXA-2/SHV-18, CAMHB) of the same molecule?
Answer: The MIC was over 64 µg/mL.

Question: And the MIC (K. pneumoniae; BAA2146, read-out: BMD MIC, K. pneumoniae BAA-2146, MDR, ESBL, NDM-1 pos, MHB)?
Answer: Its MIC is over 64 µg/mL.

Question: And the MIC (K. pneumoniae; read-out: BMD MIC, K. pneumoniae Greece CI 8_GR_13, XDR, KPC-2, PmxR, MHB)?
Answer: The MIC was over 64 µg/mL.

Question: And the MIC (P. aeruginosa; ATCC27853, read-out: BMD MIC, P. aeruginosa ATCC 27853 control strain, CAMHB)?
Answer: Its MIC is 8 µg/mL (≈ 14.6 µM).

Question: And the MIC (P. aeruginosa; read-out: BMD MIC, P. aeruginosa FADDI-070, MDR, PmxR, MHB/CAMHB)?
Answer: Its MIC is over 64 µg/mL.

Question: And the MIC (S. enterica Typhi)?
Answer: The MIC was at most 0.5 µg/mL.

Question: What about the MIC90 ([3]; Acinetobacter baumannii) of the same molecule?
Answer: The MIC90 was over 32 µg/mL.

Question: What about the MIC90 ([3]; US isolates 2010–2012, A. baumannii MDR, n = 19) of the same molecule?
Answer: The MIC90 was over 32 µg/mL.

Question: And the MIC90 ([3]; US isolates 2010–2012, A. baumannii XDR, n = 31)?
Answer: The MIC90 was over 32 µg/mL.

Question: And the MIC50 [3, 8]?
Answer: Its MIC50 is over 32 µg/mL.

Question: And the MIC90 [3, 8]?
Answer: Its MIC90 is over 32 µg/mL.

Question: What about the MIC90 ([4]; Escherichia coli) of the same molecule?
Answer: Its MIC90 is 32 µg/mL (≈ 58.5 µM).

Question: What about the MIC90 ([4]; Escherichia coli, US isolates 2010–2012, E. coli MDR, n = 31) of the same molecule?
Answer: Its MIC90 is over 32 µg/mL.

Question: What about the MIC90 ([4]; Escherichia coli, US isolates 2010–2012, E. coli Non-MDR, n = 24) of the same molecule?
Answer: Its MIC90 is 2 µg/mL (≈ 3.66 µM).

Question: What about the MIC50 [4, 9] of the same molecule?
Answer: The MIC50 was 0.25 µg/mL (≈ 0.457 µM).

Question: And the MIC90 [4, 9]?
Answer: Its MIC90 is 32 µg/mL (≈ 58.5 µM).

Question: And the MIC90 ([5]; Klebsiella pneumoniae, US isolates 2010–2012, K. pneumoniae Non-MDR, n = 24)?
Answer: Its MIC90 is 1 µg/mL (≈ 1.83 µM).

Question: And the MIC90 ([5]; Klebsiella pneumoniae, US isolates 2010–2012, K. pneumoniae XDR, n = 55)?
Answer: Its MIC90 is over 32 µg/mL.

Question: And the MIC50 [5, 10]?
Answer: Its MIC50 is 1 µg/mL (≈ 1.83 µM).

Question: And the MIC90 [5, 10]?
Answer: Its MIC90 is over 32 µg/mL.

Question: What about the MIC90 ([6]; Pseudomonas aeruginosa, US isolates 2010–2012, P. aeruginosa Non-MDR, n = 41) of the same molecule?
Answer: Its MIC90 is 32 µg/mL (≈ 58.5 µM).

Question: What about the MIC90 ([6]; Pseudomonas aeruginosa, US isolates 2010–2012, P. aeruginosa XDR, n = 37) of the same molecule?
Answer: Its MIC90 is over 32 µg/mL.

Question: What about the MIC50 [6, 11] of the same molecule?
Answer: Its MIC50 is 4 µg/mL (≈ 7.32 µM).

Question: What about the MIC90 [6, 11] of the same molecule?
Answer: The MIC90 was over 32 µg/mL.

Question: And the “BMD MIC” value (E. coli [7])?
Answer: The value was over 16 µg/mL.

Question: Which MIC (B. subtilis; ATCC6051 / NRS744, read-out: BMD MIC) does the source give for `CN[C@H](CC(C)C)C(=O)N[C@H]1C(=O)N[C@@H](CC(N)=O)C(=O)N[C@H]2C(=O)N[C@H]3C(=O)N[C@H](C(=O)N[C@H](C(=O)O)c4cc(O)cc(O)c4-c4cc3ccc4O)[C@H](O)c3ccc(c(Cl)c3)Oc3cc2cc(c3O[C@@H]2O[C@H](CO)[C@@H](O)[C@H](O)[C@H]2O[C@H]2C[C@](C)(N)[C@H](O)[C@H](C)O2)Oc2ccc(cc2Cl)[C@H]1O` [Vancomycin, reference compound] here?
Answer: The MIC was 0.25 µg/mL (≈ 0.173 µM).

Question: And the MIC (B. subtilis; ATCC6633 / NRS231, read-out: BMD MIC)?
Answer: Its MIC is 0.25 µg/mL (≈ 0.173 µM).

Question: What about the MIC (L. monocytogenes) of the same molecule?
Answer: The MIC was 4 µg/mL (≈ 2.76 µM).

Question: And the MIC (S. aureus; ATCC25923|MSSA, read-out: BMD MIC, S. aureus ATCC 25923 MSSA, CAMHB)?
Answer: Its MIC is 2 µg/mL (≈ 1.38 µM).

Question: What about the MIC (S. aureus; ATCC25923|MSSA, read-out: BMD MIC, S. aureus ATCC 25923 MSSA, MHB) of the same molecule?
Answer: The MIC was 1 µg/mL (≈ 0.69 µM).

Question: And the MIC (S. aureus; ATCC43300|MRSA, read-out: BMD MIC, S. aureus ATCC 43300 MRSA, MHB)?
Answer: The MIC was 1 µg/mL (≈ 0.69 µM).

Question: What about the MIC (S. enterica Typhi) of the same molecule?
Answer: Its MIC is over 64 µg/mL.
